# Assay results from ChEMBL document CHEMBL1148996, “6-Methoxylated and C-glycosyl flavonoids from Centaurea species” (1984).
# Legend:
# Assay type in all cases: functional
# [1] = test system: Escherichia coli; assay: Antimicrobial activity against Escherichia coli ATCC 8739 by paper disk method
# [2] = test system: Pseudomonas aeruginosa; assay: Antimicrobial activity against Pseudomonas aeruginosa ATCC 1539 by paper disk method
# [3] = test system: Bacillus subtilis; assay: Antimicrobial activity against Bacillus subtilis ATCC 6633 by paper disk method
# [4] = test system: Klebsiella pneumoniae; assay: Antimicrobial activity against Klebsiella pneumoniae UJ57 by paper disk method
# [5] = test system: Proteus vulgaris; assay: Antimicrobial activity against Proteus vulgaris ATCC 8427 by paper disk method
Structure (SMILES),MIC [1],MIC [2],MIC [3],MIC [4],MIC [5],MBC [1],MBC [2],MBC [3],MBC [4],MBC [5]
COc1ccc(-c2cc(=O)c3c(O)c(OC)c(OC)cc3o2)cc1OC,250 µg/mL,125 µg/mL,–,–,–,500 µg/mL,250 µg/mL,–,–,–
COc1ccc(-c2cc(=O)c3c(O)c(OC)c(OC)cc3o2)cc1O [EUPATORIN],188 µg/mL,–,93.8 µg/mL,–,–,> 375 µg/mL,–,188 µg/mL,–,–
COc1c(O)cc2oc(-c3ccc(O)cc3)cc(=O)c2c1O [HISPIDULIN],–,–,125 µg/mL,–,125 µg/mL,–,–,> 250 µg/mL,–,> 250 µg/mL

# Second part, led by results:
MIC [1],MIC [2],MIC [3],MIC [4],MIC [5],Structure (SMILES),MBC [1],MBC [2],MBC [3],MBC [4],MBC [5]
125 µg/mL,–,–,–,–,COc1cc(-c2cc(=O)c3c(O)c(OC)c(O)cc3o2)ccc1O [JACEOSIDINE],250 µg/mL,–,–,–,–
110 µg/mL,110 µg/mL,110 µg/mL,219 µg/mL,54.8 µg/mL,O=c1cc(-c2ccc(O)cc2)oc2cc(O)cc(O)c12 [APIGENIN],438 µg/mL,438 µg/mL,219 µg/mL,438 µg/mL,438 µg/mL
